Source: patent publication US6784205B2, “Compounds that modulate the activity of PTP-1B and TC-PTP” (Sunesis Pharmaceuticals, Inc., priority 2002, dated 2004)

Legend:
[1] = target: T1, human PTP-1B (Homo sapiens, UniProt P18031); test: PTP-1B IC50 determination with pNPP substrate; assay type: biochemical
T1 construct: A shorter cDNA, PTP-1B 298, encoding amino acid residues 1-298 was generated; made in house; host or cells: E. coli BL21 codon plus (Stratagene), pRSETc
T1 sequence (P18031 1-298): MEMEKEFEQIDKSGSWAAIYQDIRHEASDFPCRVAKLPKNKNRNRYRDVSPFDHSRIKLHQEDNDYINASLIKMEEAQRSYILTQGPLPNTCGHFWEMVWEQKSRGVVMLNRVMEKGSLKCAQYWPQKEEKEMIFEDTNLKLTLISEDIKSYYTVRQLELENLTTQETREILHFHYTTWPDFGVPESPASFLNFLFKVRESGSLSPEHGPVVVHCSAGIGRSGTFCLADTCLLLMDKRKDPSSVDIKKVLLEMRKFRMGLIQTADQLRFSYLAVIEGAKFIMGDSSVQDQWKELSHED

[2] = target: T2, TC-PTP (Homo sapiens, UniProt P17706); test: Inhibition of TC-PTP; assay type: biochemical; settings: read-out: IC50 against TC-PTP
T2 sequence (P17706 1-415): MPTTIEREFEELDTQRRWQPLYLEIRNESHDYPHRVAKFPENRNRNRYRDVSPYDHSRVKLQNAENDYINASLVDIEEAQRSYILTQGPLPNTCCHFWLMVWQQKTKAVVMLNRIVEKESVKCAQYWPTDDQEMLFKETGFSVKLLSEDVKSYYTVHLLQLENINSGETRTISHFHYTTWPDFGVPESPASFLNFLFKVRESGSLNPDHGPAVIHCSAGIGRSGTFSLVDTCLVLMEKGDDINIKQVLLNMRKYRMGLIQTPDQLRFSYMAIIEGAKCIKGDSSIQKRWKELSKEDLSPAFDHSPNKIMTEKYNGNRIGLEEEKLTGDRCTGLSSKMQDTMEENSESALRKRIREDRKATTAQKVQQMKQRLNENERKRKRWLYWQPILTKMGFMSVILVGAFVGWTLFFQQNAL

[3] = target: tyrosine phosphatase leukocyte common antigen related protein (LAR) (Homo sapiens, UniProt P10586); test: Inhibition of LAR; assay type: biochemical
[4] = system: insulin receptor phosphorylation in CHO-IR cells; test: Insulin receptor phosphorylation in CHO-IR cells (ELISA); assay type: cell-based; settings: compound added 1 hour prior to harvesting, FIG. 9
Method: This example describes an illustrative assay for quantifying the degree of insulin receptor phosphorylation in cells. Any suitable cells can be used. In this example, CHO-IR cells were grown in DMEM w/10% fetal bovine serum supplemented with penicillin and streptomycin. Cells were plated at a density of 40,000 cells per well in a 96 well plate. The following day, the medium was changed to DMEM without serum and the cells were serum starved for 16 hours. 1 hour prior to harvesting, varying concentrations of a test compound diluted in DMEM were added to the cells. Where indicated, human insulin was added to cells 10 minutes prior to harvesting. Cell were lysed in 30 mM HEPES, 150 mM NaCl, 1% triton X-100, and 0.02% sodium azide. Insulin receptor phosphorylation was quantitated in an ELISA assay as described previously (Jongsoon Lee).

Chain of tyrosine phosphatase leukocyte common antigen related protein (LAR) (P10586 30-1907): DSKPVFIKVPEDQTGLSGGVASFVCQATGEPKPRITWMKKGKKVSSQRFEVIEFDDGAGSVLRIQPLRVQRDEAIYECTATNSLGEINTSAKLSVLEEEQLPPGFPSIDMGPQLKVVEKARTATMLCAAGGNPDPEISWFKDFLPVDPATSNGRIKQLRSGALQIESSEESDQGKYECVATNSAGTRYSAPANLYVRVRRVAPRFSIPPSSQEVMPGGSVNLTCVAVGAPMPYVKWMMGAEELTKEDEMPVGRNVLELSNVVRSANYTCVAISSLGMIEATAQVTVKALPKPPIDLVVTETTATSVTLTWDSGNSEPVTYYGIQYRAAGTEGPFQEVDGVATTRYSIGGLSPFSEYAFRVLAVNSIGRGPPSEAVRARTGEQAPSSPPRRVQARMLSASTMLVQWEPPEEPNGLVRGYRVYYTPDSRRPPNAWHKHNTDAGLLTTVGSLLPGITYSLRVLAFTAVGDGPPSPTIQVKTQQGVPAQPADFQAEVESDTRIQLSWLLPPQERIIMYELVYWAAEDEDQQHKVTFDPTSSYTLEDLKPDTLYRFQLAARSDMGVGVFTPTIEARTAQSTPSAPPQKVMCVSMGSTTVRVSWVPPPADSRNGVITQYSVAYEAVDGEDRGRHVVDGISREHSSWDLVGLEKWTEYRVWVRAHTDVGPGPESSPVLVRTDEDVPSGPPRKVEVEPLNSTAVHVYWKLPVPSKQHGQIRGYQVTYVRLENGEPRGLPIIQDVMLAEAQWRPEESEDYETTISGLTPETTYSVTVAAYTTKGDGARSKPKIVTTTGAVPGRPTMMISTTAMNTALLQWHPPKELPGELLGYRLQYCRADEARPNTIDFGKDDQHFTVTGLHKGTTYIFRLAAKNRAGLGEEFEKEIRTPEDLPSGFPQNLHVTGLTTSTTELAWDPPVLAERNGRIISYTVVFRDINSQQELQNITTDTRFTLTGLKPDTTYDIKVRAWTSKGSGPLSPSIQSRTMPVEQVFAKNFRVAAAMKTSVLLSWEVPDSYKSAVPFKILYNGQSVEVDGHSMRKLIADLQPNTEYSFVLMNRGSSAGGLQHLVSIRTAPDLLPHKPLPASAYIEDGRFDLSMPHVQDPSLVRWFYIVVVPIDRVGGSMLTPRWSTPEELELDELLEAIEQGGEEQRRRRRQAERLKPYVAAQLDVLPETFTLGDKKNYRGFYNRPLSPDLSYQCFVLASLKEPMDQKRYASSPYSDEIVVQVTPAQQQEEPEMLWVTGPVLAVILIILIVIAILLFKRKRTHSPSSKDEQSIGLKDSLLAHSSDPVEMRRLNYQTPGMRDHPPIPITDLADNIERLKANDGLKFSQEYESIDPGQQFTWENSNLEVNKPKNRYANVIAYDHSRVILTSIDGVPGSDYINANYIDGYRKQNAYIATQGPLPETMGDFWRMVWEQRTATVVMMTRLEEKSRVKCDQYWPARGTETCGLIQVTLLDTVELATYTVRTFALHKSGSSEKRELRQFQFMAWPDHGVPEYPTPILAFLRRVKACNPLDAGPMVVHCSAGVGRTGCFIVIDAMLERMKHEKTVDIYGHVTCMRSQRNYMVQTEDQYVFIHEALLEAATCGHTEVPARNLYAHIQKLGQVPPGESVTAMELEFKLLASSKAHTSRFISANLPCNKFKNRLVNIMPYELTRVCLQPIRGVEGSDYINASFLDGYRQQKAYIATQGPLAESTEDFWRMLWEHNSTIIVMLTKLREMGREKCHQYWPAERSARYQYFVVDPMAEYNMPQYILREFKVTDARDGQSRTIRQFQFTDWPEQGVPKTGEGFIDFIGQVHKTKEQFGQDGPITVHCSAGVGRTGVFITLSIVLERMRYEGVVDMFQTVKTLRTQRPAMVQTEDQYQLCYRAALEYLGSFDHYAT

dependence of reaction velocity on substrate concentration ([1]; pNPP, varying concentrations of inhibitor): sigmoidal dependence | effect on Vmax with increasing inhibitor concentration ([1]; reaction velocity versus pNPP concentration, FIG. 8): decrease in Vmax | IC50 [2]: ~130 µM | inhibition of LAR [3]: does not inhibit
SMILES: CCc1oc2cc(S(=O)(=O)Nc3ccc(S(N)(=O)=O)cc3)ccc2c1C(=O)c1cc(Br)c(O)c(Br)c1 [compound 5]
level of insulin receptor phosphorylation [4]: is a function of the concentration of compound 5
